Measurements taken from US8048638B2, “Biomarkers of liver injury” (priority 2005, dated 2011).

Key:
Rats [1] = conditions: Western blot
Method: The analysis shown in Table 1, is performed by Western blot using antibody available through various sources. Typically, 25 μg protein are loaded with two identical sets of 5 samples, separated in 4-20% polyacrylamide gel mini-slabs, and transferred onto PVDF membrane. The membrane is cut in 2 pieces, blocked, probed with two different antibodies, visualized using ECL Plus Kit (Pierce, Inc) and scanned. The membranes are stripped using stripping buffer and re-probed with other two antibody. After visualizing the bands with EDCL Plus Kit and scanning, membranes are stripped again, probed with aII-spectrin antibody and developed using alkaline phosphatase detection method. For accurate assessment of molecular mass of developed proteins, two sets of protein standards are added and developed simultaneously (Magic Markers, Invitrogen, Inc).
Blood is collected from rat heart at the end of experimental procedures. Plasma is obtained from K-EDTA preserved blood by centrifugation. 20 μl of plasma or serum is mixed with 180 μl of RIPA buffer (with proteases inhibitors), vortexed, incubated on ice for 30 min and centrifuged. Supernatants are removed, aliquots mixed with sample buffer 1:1, heated and loaded onto gel.

Rats [2] = experiment: Plasma ASS and ALT accumulation after carbon tetrachloride injection (chlorinated hydrocarbon liver injury); format: in vivo, rat; conditions: for Plasma ASS increase relative to control (FIG. 30A): rat model; for Plasma ALT accumulation / Plasma ASS increase compared to controls: rats; for Plasma ASS increase compared to controls: 0.5 ml/kg CCL4 in vegetable oil
Method: Rats (n=6) were injected with 0.5 ml/kg of carbon tetrachloride (CCL4) in vegetable oil. Plasma arginosuccinate synthetase (ASS) and alanine transaminase (ALT) accumulation was measured 1 hr and 24 hr after injection. ASS increased over 15-fold compared to controls after 1 hr and over 50-fold compared to controls after 24 hr (p<0.0001), as shown in FIG. 30A.

Rats [3] = experiment: Serum ASS, CPS-1, SULT2A1 and ALT levels after repeated MDMA injections (Ecstasy liver injury); format: in vivo, rat; conditions: for Serum ASS compared to control serum levels / Serum SULT2A1 compared to control serum levels: i.p.; for Serum ASS compared to control serum levels: 10 mg/kg injections at 1.5 hr intervals
Method: Serum arginosuccinate synthetase (ASS), carbamoylphosphate synthase-1 (CPS-1) and sulfur transferase isoform A1 (SULT2A1) levels were measured after repeated injections of 10 mg/kg of methylenedioxyacetamine (MDMA) at 1.5 hr intervals.

For `CCO` [alcohol], the ALT in plasma (Rats [1]; chronic alcohol rats) was “increased”, the GST-BB in plasma (Rats [1]; rats chronically treated with alcohol) was “significant increase” and the “Intact ASS protein (46 kDa) in plasma” value (Rats [1]; rats with chronic alcoholic administration) was “absent”.

For `ClC(Cl)(Cl)Cl` [carbon tetrachloride], the “Plasma ASS increase relative to control (FIG. 30A)” value (Rats [2]; 1 hr after injection) was 15 times, the “Plasma ASS increase relative to control (FIG. 30A)” value (Rats [2]; 24 hr post injection) was 50 times and the “Plasma ALT accumulation” value (Rats [2]; 0.5 ml/kg CCL4, 1 hr after injection) was “did not increase significantly”. For the same molecule, the “Plasma ALT accumulation” value (Rats [2]; 0.5 ml/kg CCL4, 24 hr after injection, p=0.041) was “significant increase”, the “Plasma ASS increase compared to controls” value (Rats [2]; 1 hr after injection) was “over 15 fold” and the “Plasma ASS increase compared to controls” value (Rats [2]; 24 hr after injection, p<0.0001) was “over 50 fold”.

With `CNC(C)Cc1ccc2c(c1)OCO2` (stereo not drawn) [MDMA, methylenedioxyacetamine] the “Serum ASS compared to control serum levels” value (Rats [3]; total 20 mg/kg, p<0.01) was “significant increase”, the “Serum ASS compared to control serum levels” value (Rats [3]; total 40 mg/kg, p<0.001) was “significant increase” and the “Serum SULT2A1 compared to control serum levels” value (Rats [3]; total 20 mg/kg, p<0.001) was “significant increase”. For the same molecule, the “Serum SULT2A1 compared to control serum levels” value (Rats [3]; total 40 mg/kg, p<0.0001) was “significant increase”, the “Serum carbamoylphosphate synthase-1 (CPS-1) levels” value (Rats [3]; repeated i.p. injection, total 40 mg/kg, 24 hr after last injection, PAGE) was “increased levels” and the “Alanine transferase (ALT)” value (Rats [3]; repeated i.p. injections of 10 mg/kg) was “No increase”.
